# Results taken from patent EP0011828A1, “Pharmaceutical combinations including hydantoin derivatives, pharmaceutical formulations containing the combinations and methods of making the formulations” (THE WELLCOME FOUNDATION LIMITED, priority 1978, dated 1980).
# Entries after “also recorded” stand apart in the source; their conditions may differ.
# Assays:
# [1] = tested on: aspirin- induced gastric lesions; details: rats; cited from earlier work
# [2] = tested on: pentagastrin-induced gastric acid secretion; details: rat, in vivo; cited from earlier work
# [3] = tested on: rabbit platelet-rich plasma (PRP); experiment: Arachidonic acid-induced aggregation in rabbit platelet-rich plasma, Born-type aggregometer; type: cell-based
# Protocol: (§1) Aggregation was induced in rabbit platelet-rich plasma (PRP) by addition of arachidonic acid, and monitored in a Born-type aggregometer. A dose of dipyridamole was selected which caused no inhibition of aggregation when added to the PRP 2 minutes prior to the addition of arachidonic acid. The active compound when added to the PRP 1 minute prior to the addition of arachidonic acid caused a dose-related inhibition of aggregation. The percentage inhibition caused by the active compound was compared in the presence and absence of the selected dose of dipyridamole.
# human PRP [4] = experiment: Platelet aggregation in human PRP, potentiation by dipyridamole; type: cell-based; details: dipyridamole combined with 5-(6-carboxyhexyl)-1-(3-hydroxy-3-cyclohexylpropyl)hydantoin
# human PRP [5] = experiment: ADP-induced aggregation of human PRP, potentiation by theophylline; type: cell-based
# Protocol: [The source words this procedure for another species and says it was used here with some conditions changed.] as §1
# The experiment of Example 12 was repeated using theophylline, another inhibitor of phosphodiesterase, in place of the dipyridamole. […]
# platelet aggregation = experiment: Inhibition of platelet aggregation (general statement); type: cell-based
# [6] = tested on: histamine-induced broncho-constriction; details: cited from earlier work
smiles,measurement,setting,value
O=C(O)CCCCCCC1C(=O)NC(=O)N1CCCCOc1ccccc1 (stereo not shown) [5-(6-carboxyhexyl)-1-(4-phenoxybutyl) hydantoin],formation of aspirin-induced gastric lesions,[1],reduces the formation of aspirin- induced gastric lesions in rats
same,inhibition of pentagastrin-induced gastric acid secretion,[2],inhibits pentagastrin-induced gastric acid secretion
"OCCN(CCO)c1nc(N2CCCCC2)c2nc(N(CCO)CCO)nc(N3CCCCC3)c2n1 [Dipyridamole, 2,2', 2"",2'""-(4,8-dipiperidinopy-rimido [5,4-d]pyrimidine-2,6-diyldinitrilo)tetraethanol, reference compound]",inhibition at 50 µg/mL,"[3]; Oryctolagus cuniculus, Dipyridamole 50 µg/ml alone, added 2 minutes before arachidonic acid, read-out: Percentage Inhibition",0%
same,potentiation of the inhibitory activity of the active compound on platelet aggregation,"[3]; dipyridamole combined with 5-(6-carboxyhexyl)-1-(3-hydroxy-3-cyclohexylpropyl)hydantoin, rabbit PRP",inhibitory effect of a dose of the active compound in the presence of dipyridamole is approximately equivalent to that caused by twice that dose of the active compound alone; also recorded: produced a potentiation of the anti-aggrcgatory effect of the active compound
same,potentiation of the anti-aggregatory effect of the active compound,human PRP [4],a similar potentiation was observed; also recorded: produced a potentiation of the anti-aggrcgatory effect of the active compound
O=C(O)CCCCCCC1C(=O)NC(=O)N1CCC(O)C1CCCCC1 (stereo not shown) [5-(6-carboxyhexyl)-1-(3-hydroxy-3-cyclohexylpropyl)hydantoin],inhibition at 0.05 µg/mL,"[3]; Oryctolagus cuniculus, active compound 50 ng/ml alone, added 1 minute before arachidonic acid, read-out: Percentage Inhibition",37%
same,inhibition at 0.075 µg/mL,"[3]; Oryctolagus cuniculus, active compound 75 ng/ml alone, read-out: Percentage Inhibition",66%
same,inhibition at 0.1 µg/mL,"[3]; Oryctolagus cuniculus, active compound 100 ng/ml alone, read-out: Percentage Inhibition",100%
same,Percentage Inhibition,[3]; active compound 50 ng/ml with Dipyridamole 50 µg/ml,77
same,inhibition of rabbit platelet aggregation (potency in words),"[3]; rabbit platelets, active compound alone",not a particularly potent inhibiton of rabbit platelet aggregation
same,inhibition at 0.0005 µg/mL,"human PRP [5]; Homo sapiens, active compound 0.5 ng/ml alone, read-out: Percentage Inhibition",19%
same,inhibition at 0.001 µg/mL,"human PRP [5]; Homo sapiens, active compound 1 ng/ml alone, read-out: Percentage Inhibition",55%
same,Percentage Inhibition,human PRP [5]; active compound 0.5 ng/ml with Theophylline 20 µg/ml,51
same,Percentage Inhibition,human PRP [5]; active compound 1 ng/ml with Theophylline 20 µg/ml,70
same,inhibitors of platelet aggregation (activity in words),platelet aggregation,especially active
"CCCCC(C)(C)C(O)CCN1C(=O)NC(=O)C1CCCCCCC(=O)O (stereo not shown) [5-(6-carboxyhexyl)-1-(3-hydroxy-4,4-dimethyloctyl) hydantoin]",antagonism of histamine-induced broncho-constriction,[6],antagonises histamine-induced broncho-constriction
CCCCCC(=O)CCN1C(=O)N(C)C(=O)C1CCCCCCC(=O)O (stereo not shown) [5-(6-carboxyhexyl)-3-methyl-1-(3-oxo-octyl)hydantoin],formation of aspirin-induced gastric lesions,[1],reduces the formation of aspirin- induced gastric lesions in rats
same,inhibition of pentagastrin-induced gastric acid secretion,[2],inhibits pentagastrin-induced gastric acid secretion
CCCCCC(=O)CCN1C(=O)NC(=O)C1CCCCCCC(=O)O (stereo not shown) [5-(6-carboxyhexyl)-1-(3-oxo-octyl)hydantoin],formation of aspirin-induced gastric lesions,[1],reduces the formation of aspirin- induced gastric lesions in rats
same,inhibition of pentagastrin-induced gastric acid secretion,[2],inhibits pentagastrin-induced gastric acid secretion
CCCCCC(O)CCN1C(=O)NC(=O)C1CCCCCCC(=O)O (stereo not shown) [5-(6-carlJoxy-hexyl)-1-(3-hydroxyoctyl)-hydantoin],formation of aspirin-induced gastric lesions,[1],reduces the formation of aspirin- induced gastric lesions in rats
same,inhibition of pentagastrin-induced gastric acid secretion,[2],inhibits pentagastrin-induced gastric acid secretion
"Cn1c(=O)c2[nH]cnc2n(C)c1=O [Theophylline, 3,7-dihydro-1,3-dimethyl-1H-purine-2,6-dione, reference compound]",inhibition at 20 µg/mL,"human PRP [5]; Homo sapiens, Theophylline 20 µg/ml alone, read-out: Percentage Inhibition",7%
same,potentiation of the inhibitory effect of the active compound on ADP - induced aggregation,"human PRP [5]; theophylline combined with 5-(6-carboxyhexyl)-1-(3-hydroxy-3-cyclohexylpropyl)hydantoin, human PRP",found to potentiate the inhibitory effect
O=C(O)CCCC=CCC1C(=O)NC(=O)N1CCC(O)C1CCCCC1 (stereo not shown) [5-(6-carboxyhex-2-enyl)-1-(3-hydroxy-3-cyclohexylpropyl)hydantoin],inhibitors of platelet aggregation (activity in words),platelet aggregation,especially active
